# Test system: Serotonin (5-HT) uptake by rat brain synaptosome
# Assay: Serotonin (5-HT) uptake inhibitory activity by rat brain synaptosome
# Type: biochemical
# Settings: test compound 300 nM; rat frontal cortex crude synaptosome; tritium labeled 5-HT 8 nM
# Description: Measurement of Serotonin (5-HT) Uptake Inhibitory Activity of a Test Compound by Rat Brain Synaptosome
# Wistar male rats were decapitated, the brain was retrieved and frontal cortex was dissected out, and it was homogenized in 0.32 M sucrose solution of a weight 20 times of the weight of the tissue using a Potter type homogenizer.
# 5-HT uptake reaction was performed in a volume of 200 μl using a 96-well round bottom plate and pargyline (final concentration 10 μM) and sodium ascorbate (final concentration 0.2 mg/ml) were contained in the incubation buffer upon reaction and used.
# Incubation buffer (total counting), non-labeled 5-HT (final concentration 10 μM, non-specific counting) and the diluted test compound (final concentration 300 nM) were added to each well. One-tenth quantity of the final volume of the synaptosome fraction was added and after preincubated at 37° C. for 10 minutes, tritium labeled 5-HT solution (final concentration 8 nM) was added and uptake reaction was started at 37° C. The uptake time was 10 minutes and the reaction was terminated by vacuum filtration through a 96-well fiber glass filter paper plate, and after the filter paper was washed with cold normal saline, it was dried enough and Microscint0 (Perkin-Elmer) was added to the filter and remaining radioactivity on the filter was measured.
row,Compound,Serotonin uptake inhibitory ratio (%)(300 nM) [%]
1,"CN1CCc2cc(OCCCN3CCN(c4cccc5sccc45)CC3)ccc2C1=O [Example 26, 6-[3-(4-benzo[b]thiophen-4-yl-piperazin-1-yl)propoxy]-2-methyl-3,4-dihydro-2H-isoquinolin-1-one]",92.0
2,"O=C1c2ccccc2CCN1CCCCCN1CCN(c2cccc3sccc23)CC1 [Example 24, 2-[5-(4-benzo[b]thiophen-4-yl-piperazin-1-yl)pentyl]-3,4-dihydro-2H-isoquinolin-1-one]",97.5
3,"CCN1CCc2cc(OCCCN3CCN(c4cccc5sccc45)CC3)ccc2C1=O [Example 27, 6-[3-(4-benzo[b]thiophen-4-yl-piperazin-1-yl)propoxy]-2-ethyl-3,4-dihydro-2H-isoquinolin-1-one]",94.0
4,"Cc1cc(=O)[nH]c2cc(OCCCN3CCN(c4cccc5sccc45)CC3)ccc12 [Example 3, 7-[3-(4-benzo[b]thiophen-4-yl-piperazin-1-yl)propoxy]-4-methyl-1H-quinolin-2-one]",84.8
5,"O=C1CCc2ccc(OC/C=C/CN3CCN(c4cccc5sccc45)CC3)cc2N1 [Example 15, 7-[4-(4-benzo[b]thiophen-4-yl-piperazin-1-yl)-(E)-2-butenyloxy]-3,4-dihydro-1H-quinolin-2-one]",87.2
6,"Cc1cc2ccc(OCCCCN3CCN(c4cccc5sccc45)CC3)cc2[nH]c1=O [Example 6, 7-[4-(4-benzo[b]thiophen-4-yl-piperazin-1-yl)butoxy]-3-methyl-1H-quinolin-2-one]",91.3
7,"Cc1cc(=O)[nH]c2cc(OCCCCN3CCN(c4cccc5sccc45)CC3)ccc12 [Example 4, 7-[4-(4-benzo[b]thiophen-4-yl-piperazin-1-yl)butoxy]-4-methyl-1H-quinolin-2-one]",91.0
8,"O=C1NCCc2cc(OCCCN3CCN(c4cccc5sccc45)CC3)ccc21 [Example 25, 6-[3-(4-benzo[b]thiophen-4-yl-piperazin-1-yl)propoxy]-3,4-dihydro-2H-isoquinolin-1-one]",91.9
9,"O=c1ccc2ccc(OCCCN3CCN(c4cccc5sccc45)CC3)cc2[nH]1 [Example 7, 7-[3-(4-benzo[b]thiophen-4-yl-piperazin-1-yl)propoxy]-1H-quinolin-2-one]",91.0
10,"O=c1ccc2ccc(OCCCCN3CCN(c4cccc5sccc45)CC3)cc2[nH]1 [Example 1, 7-[4-(4-benzo[b]thiophen-4-yl-piperazin-1-yl)butoxy]-1H-quinolin-2-one]",92.4
11,"O=C1CCc2cc(OCCCCN3CCN(c4cccc5sccc45)CC3)ccc2N1 [Example 20, 6-[4-(4-benzo[b]thiophen-4-yl-piperazin-1-yl)butoxy]-3,4-dihydro-1H-quinolin-2-one]",92.8
12,"O=c1[nH]ccc2cc(OCCCN3CCN(c4cccc5sccc45)CC3)ccc12 [Example 40, 6-[3-(4-benzo[b]thiophen-4-yl-piperazin-1-yl)propoxy]-2H-isoquinolin-1-one]",91.6
13,"CC1CC(=O)Nc2cc(OCCCCN3CCN(c4cccc5sccc45)CC3)ccc21 (stereo not shown) [Example 16, 7-[4-(4-benzo[b]thiophen-4-yl-piperazin-1-yl)butoxy]-4-methyl-3,4-dihydro-1H-quinolin-2-one]",86.7
14,"O=C1CCc2ccc(OCCCN3CCN(c4cccc5sccc45)CC3)cc2N1 [Example 10, 7-[3-(4-benzo[b]thiophen-4-yl-piperazin-1-yl)propoxy]-3,4-dihydro-1H-quinolin-2-one]",92.6
15,"O=c1c2ccccc2ccn1CCCCN1CCN(c2cccc3sccc23)CC1 [Example 34, 2-[4-(4-benzo[b]thiophen-4-yl-piperazin-1-yl)butyl]-2H-isoquinolin-1-one]",94.2
16,"O=c1[nH]c2ccccc2cc1OCCN1CCN(c2cccc3sccc23)CC1 [Example 2, 3-[2-(4-benzo[b]thiophen-4-yl-piperazin-1-yl)ethoxy]-1H-quinolin-2-one]",78.8
17,"O=C1CCc2ccc(OC/C=C\CN3CCN(c4cccc5sccc45)CC3)cc2N1 [Example 13, 7-[4-(4-benzo[b]thiophen-4-yl-piperazin-1-yl)-(Z)-2-butenyloxy]-3,4-dihydro-1H-quinolin-2-one]",77.0
18,"Cc1cc2ccc(OCCCN3CCN(c4cccc5sccc45)CC3)cc2[nH]c1=O [Example 5, 7-[3-(4-benzo[b]thiophen-4-yl-piperazin-1-yl)propoxy]-3-methyl-1H-quinolin-2-one]",89.1

# Biological target: Human recombinant dopamine D2 receptor (Homo sapiens (Human), UniProt P14416)
# Sequence (P14416 whole entry): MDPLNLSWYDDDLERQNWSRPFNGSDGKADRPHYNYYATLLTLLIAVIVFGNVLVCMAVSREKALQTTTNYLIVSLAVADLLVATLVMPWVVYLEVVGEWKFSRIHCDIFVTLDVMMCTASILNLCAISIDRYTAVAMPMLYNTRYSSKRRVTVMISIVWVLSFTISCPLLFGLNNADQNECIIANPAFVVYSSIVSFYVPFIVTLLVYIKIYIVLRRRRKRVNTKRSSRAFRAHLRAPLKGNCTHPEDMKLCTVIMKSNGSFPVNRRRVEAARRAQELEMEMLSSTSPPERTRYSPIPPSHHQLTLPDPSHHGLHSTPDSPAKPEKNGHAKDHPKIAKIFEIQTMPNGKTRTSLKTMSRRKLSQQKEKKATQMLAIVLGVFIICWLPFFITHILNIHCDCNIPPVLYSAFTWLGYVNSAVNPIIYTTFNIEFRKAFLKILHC
# Assay: not given
# Settings: forskolin stimulation; well without test compound = 100%; CHO/DHFR(-) cells
# Description: Partial agonistic activity on dopamine D2 receptor using D2 receptor expression cells
# Partial agonistic activity on dopamine D2 receptor was evaluated by quantitatively determining cyclic AMP production inhibitory effect of a test compound in dopamine D2 receptor expression cells in which adenosine 3′,5′-cyclic monophosphate (cyclic AMP) production was induced by forskolin stimulation.
# Human recombinant dopamine D2 receptor expressing Chinese hamster ovary/DHFR(−) cells were cultured in a culture medium (Iscove's Modified Dulbecco's Medium (IMDM culture medium), 10% fetal bovine serum, 50 I.U./ml penicillin, 50 μg/ml streptomycin, 200 μg/ml geneticin, 0.1 mM sodium hypoxanthine, 16 μM thymidine) at 37° C. and 5% carbon dioxide condition. Cells were seeded at 10^4 cells/well on a 96-well microtiter plate coated with poly-L-lysine and grown under the same condition for 2 days. Each well was washed with 100 μl of a culture medium (IMDM culture medium, 0.1 mM sodium hypoxanthine, 16 μM thymidine).
row,Compound,quantity of cyclic AMP as the maximum activity
1,NCCc1ccc(O)c(O)c1 [dopamine],about 10%
